Reference: patent US10065970B2 (Genentech, Inc., priority 2015, dated 2018)
Read-outs that look alike come from different tables or passages of the source.

Target: PI3Kα (alpha) (Homo sapiens (Human), UniProt P42336)
Experiment: p110α (alpha) PI3K Binding Assay (ADP-Glo lipid kinase reaction)
Type: biochemical
Settings: read-out: PI3Kα-(alpha) ATP (Ki) micromolar
Summary of the method: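 Enzyme with PIP2:3PS lipid substrate and ATP/MgCl2 in 50 mM HEPES, 50 mM NaCl, 3 mM MgCl2, 0.01% BSA, 1% DMSO, 120 min at room temperature. ADP formed detected by ADP-Glo luminescence. Ki from 10-point dose-response curves via the Morrison equation.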

[1] = PI3K alpha 0.2 nM, ATP 40 μM, PIP2:3PS 50 μM, 120 min, room temperature, Ki by Morrison Equation

PI3Kα (alpha), sequence (P42336 whole entry): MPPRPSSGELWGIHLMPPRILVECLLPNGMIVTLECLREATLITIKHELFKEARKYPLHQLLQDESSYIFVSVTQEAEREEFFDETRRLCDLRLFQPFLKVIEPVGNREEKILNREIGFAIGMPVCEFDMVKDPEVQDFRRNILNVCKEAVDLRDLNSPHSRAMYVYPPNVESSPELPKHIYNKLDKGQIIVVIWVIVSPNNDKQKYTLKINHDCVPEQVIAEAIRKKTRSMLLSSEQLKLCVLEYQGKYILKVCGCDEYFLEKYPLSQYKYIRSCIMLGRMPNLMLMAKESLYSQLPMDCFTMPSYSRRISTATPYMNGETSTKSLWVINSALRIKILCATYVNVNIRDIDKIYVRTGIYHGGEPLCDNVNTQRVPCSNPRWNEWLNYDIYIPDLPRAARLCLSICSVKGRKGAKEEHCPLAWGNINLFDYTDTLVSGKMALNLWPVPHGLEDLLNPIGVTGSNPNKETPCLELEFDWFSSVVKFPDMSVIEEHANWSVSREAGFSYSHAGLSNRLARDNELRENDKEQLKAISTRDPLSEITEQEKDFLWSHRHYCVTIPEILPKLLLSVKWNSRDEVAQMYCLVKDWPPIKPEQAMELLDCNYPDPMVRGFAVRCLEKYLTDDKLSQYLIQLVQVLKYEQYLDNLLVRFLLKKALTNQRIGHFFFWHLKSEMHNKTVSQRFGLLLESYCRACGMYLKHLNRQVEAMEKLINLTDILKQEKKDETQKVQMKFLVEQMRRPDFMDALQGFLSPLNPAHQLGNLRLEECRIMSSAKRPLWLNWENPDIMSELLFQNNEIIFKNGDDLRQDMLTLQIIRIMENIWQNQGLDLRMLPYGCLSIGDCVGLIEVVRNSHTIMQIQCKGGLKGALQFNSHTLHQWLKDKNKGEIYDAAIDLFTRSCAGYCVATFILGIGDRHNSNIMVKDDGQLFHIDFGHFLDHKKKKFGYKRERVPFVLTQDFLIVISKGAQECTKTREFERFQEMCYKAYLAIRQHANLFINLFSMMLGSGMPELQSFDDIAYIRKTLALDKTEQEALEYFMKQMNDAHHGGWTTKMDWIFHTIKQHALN
PI3Kα (alpha), sequence (P27986 whole entry partner): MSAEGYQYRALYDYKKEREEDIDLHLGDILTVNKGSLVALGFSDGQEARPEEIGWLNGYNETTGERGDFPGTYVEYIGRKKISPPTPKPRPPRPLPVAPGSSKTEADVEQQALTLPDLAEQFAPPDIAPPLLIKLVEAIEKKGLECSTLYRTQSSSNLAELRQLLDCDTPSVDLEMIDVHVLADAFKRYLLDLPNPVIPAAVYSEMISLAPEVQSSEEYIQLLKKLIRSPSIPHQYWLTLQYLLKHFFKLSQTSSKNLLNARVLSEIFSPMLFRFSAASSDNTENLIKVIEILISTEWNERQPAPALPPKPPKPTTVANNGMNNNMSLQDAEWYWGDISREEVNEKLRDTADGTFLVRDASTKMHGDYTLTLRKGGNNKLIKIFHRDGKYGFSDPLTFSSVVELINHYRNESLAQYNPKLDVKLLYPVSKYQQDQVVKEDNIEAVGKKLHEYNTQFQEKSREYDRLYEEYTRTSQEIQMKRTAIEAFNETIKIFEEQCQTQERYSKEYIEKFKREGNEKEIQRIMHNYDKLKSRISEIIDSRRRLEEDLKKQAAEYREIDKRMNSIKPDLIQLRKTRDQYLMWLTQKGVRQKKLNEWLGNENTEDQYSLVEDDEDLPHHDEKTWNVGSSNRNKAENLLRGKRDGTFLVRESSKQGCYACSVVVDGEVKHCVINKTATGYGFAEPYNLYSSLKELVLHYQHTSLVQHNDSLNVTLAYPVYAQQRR

Structure (SMILES)	Ki [1] [pM]	Ki [pM]
C[C@@H](Oc1cc2c3c(c1)nc(-c1cc(F)c4oc(N)nc4c1)n3CCCO2)C(N)=O [Example 263, (R)-2-((1-(2-Amino-7-fluorobenzo[d]oxazol-5-yl)-8,9-dihydro-7H-6-oxa-2,9a-diazabenzo[cd]azulen-4-yl)oxy)propanamide]	346	–
C[C@@H](C(N)=O)N(C)c1cc2c3c(c1)nc(-c1cc(F)c4oc(N)nc4c1)n3CCCCO2 [Example 264, (S)-2-((1-(2-Amino-7-fluorobenzo[d]oxazol-5-yl)-7,8,9,10-tetrahydro-6-oxa-2,10a-diazacycloocta[cd]inden-4-yl)(methyl)amino)propanamide]	< 20	–
C[C@H](Oc1cc2c3c(c1)nc(-c1ccc4nc(N)sc4n1)n3CCCCO2)C(N)=O [Example 265, (S)-2-((1-(2-Aminothiazolo[5,4-b]pyridin-5-yl)-7,8,9,10-tetrahydro-6-oxa-2,10a-diazacycloocta[cd]inden-4-yl)oxy)propanamide]	< 20	–
C[C@H](Oc1cc2c3c(c1)nc(-c1ccc4oc(N)nc4n1)n3CCCO2)C(N)=O [Example 266, (S)-2-((1-(2-Aminooxazolo[4,5-b]pyridin-5-yl)-8,9-dihydro-7H-6-oxa-2,9a-diazabenzo[cd]azulen-4-yl)oxy)propanamide]	108	–
C[C@H](Oc1cc2c3c(c1)nc(-c1ccc(-c4nc[nH]n4)c(F)c1)n3CCCCO2)C(N)=O [Example 269, (S)-2-((1-(3-Fluoro-4-(1H-1,2,4-triazol-3-yl)phenyl)-7,8,9,10-tetrahydro-6-oxa-2,10a-diazacycloocta[cd]inden-4-yl)oxy)propanamide]	< 20	–
CC[C@H](Oc1cc2c3c(c1)nc(-c1ccc4oc(N)nc4c1)n3CCCCO2)C(N)=O [Example 271, (S)-2-((1-(2-Aminobenzo[d]oxazol-5-yl)-7,8,9,10-tetrahydro-6-oxa-2,10a-diazacycloocta[cd]inden-4-yl)oxy)butanamide]	< 20	–
CC[C@H](Oc1cc2c3c(c1)nc(-c1cc(F)c4oc(N)nc4c1)n3CCCCO2)C(N)=O [Example 272, (S)-2-((1-(2-Amino-7-fluorobenzo[d]oxazol-5-yl)-7,8,9,10-tetrahydro-6-oxa-2,10a-diazacycloocta[cd]inden-4-yl)oxy)butanamide]	< 20	–
CC[C@H](Oc1cc2c3c(c1)nc(-c1cc(F)c4nc(N)sc4c1)n3CCCCO2)C(N)=O [Example 273, (S)-2-((1-(2-Amino-4-fluorobenzo[d]thiazol-6-yl)-7,8,9,10-tetrahydro-6-oxa-2,10a-diazacycloocta[cd]inden-4-yl)oxy)butanamide]	49.4	–
C[C@H](Oc1cc2c3c(c1)nc(-c1ccc4nc(N)sc4c1)n3CCCO2)C(N)=O [Example 274, (S)-2-((1-(2-Aminobenzo[d]thiazol-6-yl)-8,9-dihydro-7H-6-oxa-2,9a-diazabenzo[cd]azulen-4-yl)oxy)propanamide]	2100	–
C[C@H](Oc1cc2c3c(c1)nc(-c1cc(F)c4sc(N)nc4c1)n3CCCCO2)C(N)=O [Example 285, (S)-2-((1-(2-Amino-7-fluorobenzo[d]thiazol-5-yl)-7,8,9,10-tetrahydro-6-oxa-2,10a-diazacycloocta[cd]inden-4-yl)oxy)propanamide]	62	–
C[C@H](Oc1cc2c3c(c1)nc(-c1ccc4nc(N)nnc4c1)n3CCCCO2)C(N)=O [Example 292, (S)-2-((1-(3-Aminobenzo[e][1,2,4]triazin-7-yl)-7,8,9,10-tetrahydro-6-oxa-2,10a-diazacycloocta[cd]inden-4-yl)oxy)propanamide]	24	–
C[C@H](Oc1cc2c3c(c1)nc(-c1ccc(-c4ncn[nH]4)cc1F)n3CCCCO2)C(N)=O [Example 293, (S)-2-((1-(2-Fluoro-4-(1H-1,2,4-triazol-3-yl)phenyl)-7,8,9,10-tetrahydro-6-oxa-2,10a-diazacycloocta[cd]inden-4-yl)oxy)propanamide]	22.2	–
NC(=O)[C@@H]1[C@@H](F)CCN1c1cc2c3c(c1)nc(-c1ccc4oc(N)nc4c1)n3CCCCO2 [Example 294, (2R,3S)-1-(1-(2-Aminobenzo[d]oxazol-5-yl)-7,8,9,10-tetrahydro-6-oxa-2,10a-diazacycloocta[cd]inden-4-yl)-3-fluoropyrrolidine-2-carboxamide]	< 20	–
CC[C@H](Oc1cc2c3c(c1)nc(-c1cc(F)c(-c4ncn[nH]4)cc1F)n3CCCCO2)C(N)=O [Example 295, (S)-2-((1-(2,5-Difluoro-4-(1H-1,2,4-triazol-5-yl)phenyl)-7,8,9,10-tetrahydro-6-oxa-2,10a-diazacycloocta[cd]inden-4-yl)oxy)butanamide]	53	–
C[C@H](Oc1cc2c3c(c1)nc(-c1ccc(-c4ncn[nH]4)cn1)n3CCCCO2)C(N)=O [Example 296, (S)-2-((1-(5-(1H-1,2,4-Triazol-5-yl)pyridin-2-yl)-7,8,9,10-tetrahydro-6-oxa-2,10a-diazacycloocta[cd]inden-4-yl)oxy)propanamide]	< 20	–
C[C@H](Oc1cc2c3c(c1)nc(-c1ccc4oc(N)nc4c1)n3CCCCO2)C(=O)O [Example 297, (S)-2-((1-(2-Aminobenzo[d]oxazol-5-yl)-7,8,9,10-tetrahydro-6-oxa-2,10a-diazacycloocta[cd]inden-4-yl)oxy)propanoic acid]	2230	–
C[C@H](Oc1cc2c3c(c1)nc(-c1cnc(-c4ncn[nH]4)c(F)c1)n3CCCCO2)C(N)=O [Example 307, (S)-2-((1-(5-Fluoro-6-(1H-1,2,4-triazol-5-yl)pyridin-3-yl)-7,8,9,10-tetrahydro-6-oxa-2,10a-diazacycloocta[cd]inden-4-yl)oxy)propanamide]	< 20	–
C[C@H]1CCN(c2cc3c4c(c2)nc(-c2ccc5oc(N)nc5c2)n4CCCO3)[C@@H]1C(N)=O [Example 308, (2S,3S)-1-(1-(2-Aminobenzo[d]oxazol-5-yl)-8,9-dihydro-7H-6-oxa-2,9a-diazabenzo[cd]azulen-4-yl)-3-methylpyrrolidine-2-carboxamide]	–	627
C[C@H]1CCN(c2cc3c4c(c2)nc(-c2ccc5oc(N)nc5c2)n4CCCCO3)[C@@H]1C(N)=O [Example 309, (2S,3S)-1-(1-(2-Aminobenzo[d]oxazol-5-yl)-7,8,9,10-tetrahydro-6-oxa-2,10a-diazacycloocta[cd]inden-4-yl)-3-methylpyrrolidine-2-carboxamide]	40	–
CO[C@@H]1CCN(c2cc3c4c(c2)nc(-c2ccc5oc(N)nc5c2)n4CCCCO3)[C@@H]1C(N)=O [Example 310, (2S,3R)-1-(1-(2-Aminobenzo[d]oxazol-5-yl)-7,8,9,10-tetrahydro-6-oxa-2,10a-diazacycloocta[cd]inden-4-yl)-3-methoxypyrrolidine-2-carboxamide]	171	–
CC[C@H](Oc1cc2c3c(c1)nc(-c1ccc4oc(N)nc4c1)n3CCCCO2)C(=O)O [Example 313, (S)-2-((1-(2-Aminobenzo[d]oxazol-5-yl)-7,8,9,10-tetrahydro-6-oxa-2,10a-diazacycloocta[cd]inden-4-yl)oxy)butanoic acid]	2090	–
